Results as given in patent US20230301890A1, “COMPOSITIONS COMPRISING UROLITHINS” (Amazentis SA, priority 2022, published 2023).

System: Normal Adult Human Epidermal Keratinocytes (NHEK-Ad)
Experiment: RNA sequencing gene expression in human primary keratinocytes
Type: cell-based
Details: for expression of autophagy/mitophagy and mitochondrial function genes / expression of MMP1: vs DMSO/vehicle
Protocol: Study was conducted on Normal Adult Human Dermal Fibroblasts (NHDF-Ad) from two pooled donors (Catalog #: CC-2511) and Normal Adult Human Epidermal Keratinocytes (NHEK-Ad) from two pooled donors (Catalog #: 00192627, Lonza). The primary skin cells were amplified in flask and seeded in 12-well cell culture plates, filled with 1 mL of culture medium and then incubated at 37° C. with 5% CO2 and saturated hygrometry. The basic culture medium of human dermal fibroblasts was composed of FBM™ medium (Fibroblast Growth Basal Medium) supplemented with insulin 0.1%, hFGF-B 0.1%, GA-1000 0.1% and FBS 2%. The basic culture medium of human keratinocytes was composed of KBM™ Gold medium (Keratinocytes Basal Medium) supplemented with Hydrocortisone, Transferrin, Epinephrine, Gentamycin, Amphotericin B, BPE, hEGF and Insulin. Primary cells were treated at confluency (approximatively 250000 cells per well) with 0.1% DMSO (control), 2.5 μM and 10 μM of Urolithin A for 24 h, and harvested for RNA sequencing and expression profiling using the NGS platform.

Which results are given for `O=c1oc2cc(O)ccc2c2ccc(O)cc12` [Urolithin A]?
expression of genes encoding collagen degradation enzymes (MMPs, ADAMs) (2.5 uM or 10 uM, 24 h, vs DMSO): reduces expression; expression of genes encoding proinflammatory cytokines (IL1A, IL1B) (2.5 uM or 10 uM, 24 h, vs DMSO): reduces expression; expression of autophagy/mitophagy and mitochondrial function genes (2.5 uM or 10 uM, 24 h): increases the expression; expression of autophagy/mitophagy and mitochondrial function genes (2.5 uM or 10 uM, 24 h, listed as UA): upregulated; expression of mitophagy marker PINK1 (2.5 uM or 10 uM, vs DMSO): increased; expression of MMP1 (24 h): decreases; expression of MMP1 (24 h, listed as UA): drastic downregulation; expression of MMP3 (24 h, vs vehicle): drastic downregulation
